Reference: paper PMC6268379, “Antifungal Activity of Homoaconitate and Homoisocitrate Analogs” (Molecules, 2012)
≈ marks a conversion by molar mass, not a printed value. Like-named read-outs stand apart in the source and are kept apart here.

How the values were obtained:
Candida krusei DSM 6128 = assay: Antifungal in vitro activity, microplate serial dilution (modified CLSI M27-A3); format: cell-based; details: Pichia kudriavzevii
[1] = test system: Candida albicans ATCC 10231; assay: as above; format: cell-based
[2] = test system: Candida glabrata DSM 11226; assay: as above; format: cell-based; details: Nakaseomyces glabratus
[3] = test system: Candida lusitaniae DSM 70102; assay: as above; format: cell-based; details: Clavispora lusitaniae
[4] = test system: Saccharomyces cerevisiae ATCC 9763; assay: as above; format: cell-based
[5] = test system: Candida tropicalis KKP 334; assay: as above; format: cell-based
[6] = biological target: T1, recombinant homoaconitase (HA) (Candida albicans, UniProt Q5A644); assay: Homoaconitase activity, coupled reaction with HIcDH, NADH at 340 nm; format: biochemical; details: for effect on enzyme activity (homoaconitase): ester derivatives, concentrations up to 10 mM
T1 construct: made in house
T1 sequence (Q5A644 1-684): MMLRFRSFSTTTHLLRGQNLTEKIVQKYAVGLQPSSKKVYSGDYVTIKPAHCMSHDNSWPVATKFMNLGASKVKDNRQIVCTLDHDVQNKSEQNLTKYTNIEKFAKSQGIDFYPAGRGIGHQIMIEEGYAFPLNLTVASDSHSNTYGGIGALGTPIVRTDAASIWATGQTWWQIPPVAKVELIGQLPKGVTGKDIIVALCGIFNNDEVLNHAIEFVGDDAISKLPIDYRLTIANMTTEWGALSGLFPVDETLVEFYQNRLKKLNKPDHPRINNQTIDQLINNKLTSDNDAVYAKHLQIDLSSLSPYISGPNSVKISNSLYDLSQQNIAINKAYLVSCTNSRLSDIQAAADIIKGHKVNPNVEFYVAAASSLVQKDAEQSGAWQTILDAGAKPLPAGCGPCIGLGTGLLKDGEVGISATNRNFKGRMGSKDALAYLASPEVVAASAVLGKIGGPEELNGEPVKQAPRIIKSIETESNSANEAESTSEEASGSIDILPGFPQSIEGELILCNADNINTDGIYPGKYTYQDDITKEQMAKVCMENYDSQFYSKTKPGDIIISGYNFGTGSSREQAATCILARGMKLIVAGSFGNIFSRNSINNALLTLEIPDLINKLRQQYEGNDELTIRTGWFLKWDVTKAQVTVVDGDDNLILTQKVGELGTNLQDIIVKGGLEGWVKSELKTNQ
Description: (§1) Recombinant C. albicans homoaconitase (HA) and homoisocitrate dehydrogenase (HIcDH) containing oligoHis N-terminal tags were constructed and purified to near homogeneity as described earlier.
Activity of homoaconitase (HA) was measured by a coupled reaction with HIcDH by monitoring the reduction of NAD^+ to NADH at 340 nm. Reaction mixtures containing 50 mM Tris-HCl (pH 8.5), 50 mM KCl, 5 mM MgCl2, 20 mM dithiothreitol, 1 mM NAD^+ and 30 μg/mL of His6-HIcDH in a total volume of 0.9 mL were degassed under argon for 10 min, after which 0.05 mL of His6-HAC solution was added to a final concentration of 10 μg/mL. The reaction was initiated with addition of 0.05 mL of 50 mM (R)-homocitrate. The formation of NADH was measured for 30 s at 20 °C to determine initial reaction velocity. The initial rates were determined using a linear portion of the reaction progress curve.
(§2) The effects of novel compounds on the HA and HIcDH activity was determined by measuring the enzyme activity in standard assay mixtures containing various concentration of an inhibitor (0–10 mM). Inhibitory potential was expressed as IC50 values, i.e., concentrations causing 50% inhibition of enzyme activity in relation to control. All determinations were performed in triplicate.

six yeast strains = assay: In vitro antifungal activity against six yeast strains; format: cell-based; details: for antifungal activity: salts, six yeast strains, stated in words; for MIC values, range over susceptible yeast strains: range stated in text over the tested yeast strains
[7] = biological target: recombinant homoisocitrate dehydrogenase (HIcDH) (Candida albicans, UniProt Q5A9D9); assay: Homoisocitrate dehydrogenase activity, NADH absorption at 340 nm; format: biochemical; details: for IC50: recombinant C. albicans His-tagged HIcDH, inhibitor 0–10 mM, mean of three determinations ± SD; for effect on enzyme activity (homoisocitrate dehydrogenase): ester derivatives, concentrations up to 10 mM
Chain of recombinant homoisocitrate dehydrogenase (HIcDH) (Q5A9D9 entry or part of it): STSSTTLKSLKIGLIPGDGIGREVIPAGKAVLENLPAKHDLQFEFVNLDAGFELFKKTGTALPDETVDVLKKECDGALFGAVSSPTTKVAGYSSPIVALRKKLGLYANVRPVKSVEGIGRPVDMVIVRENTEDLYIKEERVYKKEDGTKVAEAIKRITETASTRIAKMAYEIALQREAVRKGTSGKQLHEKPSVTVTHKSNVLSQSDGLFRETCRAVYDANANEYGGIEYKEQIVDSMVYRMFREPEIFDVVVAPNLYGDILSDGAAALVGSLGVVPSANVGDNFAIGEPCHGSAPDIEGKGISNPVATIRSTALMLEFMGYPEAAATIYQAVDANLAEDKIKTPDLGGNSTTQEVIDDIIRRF
Description: as §1
Reaction catalyzed by homoisocitrate dehydrogenase (HIcDH) was monitored by measuring the NADH absorption at 340 nm. The standard assay mixture contained 10 mM KCl, 5.0 mM MgCl2, 5 mM NAD^+ and 0.1 mM (2R,3S)-homoisocitrate in 50 mM Hepes-NaOH (pH 7.8) buffer. The reaction mixture with all required components except for the enzyme was preincubated for 3 min and the reaction was started by an addition of the recombinant His6-HIcDH (50 μg). The formation of NADH was measured for 30 s at 20 °C to determine initial reaction velocity. The initial rates were determined using a linear portion of the reaction progress curve.
as §2

[8] = DSM6128, RPMI-1640 pH 7.0, 24 h at 37 °C, at least 80% decrease in turbidity, read-out: MIC C. krusei
[9] = ATCC10231, RPMI-1640 pH 7.0, 24 h at 37 °C, at least 80% decrease in turbidity, read-out: MIC C. albicans
[10] = DSM11226, RPMI-1640 pH 7.0, 24 h at 37 °C, at least 80% decrease in turbidity, read-out: MIC C. glabrata
[11] = DSM70102, RPMI-1640 pH 7.0, 24 h at 37 °C, at least 80% decrease in turbidity, read-out: MIC C. lusitaniae
[12] = ATCC9763, RPMI-1640 pH 7.0, 24 h at 37 °C, at least 80% decrease in turbidity, read-out: MIC S. cerevisiae
[13] = KKP334, RPMI-1640 pH 7.0, 24 h at 37 °C, at least 80% decrease in turbidity, read-out: MIC C. tropicalis
[14] = DSM6128, 24 h, pH 7, read-out: MIC C. krusei
[15] = ATCC10231, 24 h, pH 7, read-out: MIC C. albicans
[16] = DSM11226, 24 h, pH 7, read-out: MIC C. glabrata
[17] = DSM70102, 24 h, pH 7, read-out: MIC C. lusitaniae
[18] = ATCC9763, 24 h, pH 7, read-out: MIC S. cerevisiae
[19] = KKP334, 24 h, pH 7, read-out: MIC C. tropicalis

Row | MIC (Candida krusei DSM 6128; [8]) [µg/mL] | MIC [1, 9] [µg/mL] | MIC [2, 10] [µg/mL] | MIC [3, 11] [µg/mL] | MIC [4, 12] [µg/mL] | MIC [5, 13] [µg/mL] | SMILES | IC50 [6] [mM] | antifungal activity (six yeast strains) | IC50 [7] [mM] | Km ([7]; recombinant C. albicans HIcDH, read-out: KM of recombinant HIcDH for cofactor) [µM] | effect on enzyme activity (homoaconitase) [6] | effect on enzyme activity (homoisocitrate dehydrogenase) [7] | MIC (Candida krusei DSM 6128; [14]) [µg/mL] | MIC [1, 15] [µg/mL] | MIC [2, 16] [µg/mL] | MIC [3, 17] [µg/mL] | MIC [4, 18] [µg/mL] | MIC [5, 19] [µg/mL] | MIC values, range over susceptible yeast strains (six yeast strains) [µg/mL]
1 | > 512 | > 512 | > 512 | > 512 | > 512 | > 512 | C=CC[C@@H](C(=O)OC)[C@H](O)C(=O)OC [Compound 5c, Dimethyl (2S,3R)-2-hydroxy-3-allylsuccinate] |  |  |  |  |  |  |  |  |  |  |  |  | 
2 | > 512 | > 512 | > 512 | > 512 | > 512 | > 512 | CCCC[C@@H](C(=O)OC)[C@H](O)C(=O)OC [Compound 5b, Dimethyl (2S,3R)-2-hydroxy-3-butylsuccinate] |  |  |  |  |  |  |  |  |  |  |  |  | 
3 |  |  |  |  |  |  | NC(=O)c1ccc[n+]([C@@H]2O[C@H](COP(=O)([O-])OP(=O)(O)OC[C@H]3O[C@@H](n4cnc5c(N)ncnc54)[C@H](O)[C@@H]3O)[C@@H](O)[C@H]2O)c1 [NAD^+, reference compound] |  |  |  | 1100 |  |  |  |  |  |  |  |  | 
4 | 512 (≈ 2510 µM) | 256 (≈ 1250 µM) | 256 (≈ 1250 µM) | > 512 | > 512 | 256 (≈ 1250 µM) | C=CC[C@@H](C(=O)OC)[C@@H](F)C(=O)OC [Compound 6c, Dimethyl (2R,3S)-2-fluoro-3-allylsuccinate] |  |  |  |  |  |  |  |  |  |  |  |  | 
5 | > 512 | > 512 | > 512 | 512 (≈ 2480 µM) | > 512 | > 512 | CCC[C@@H](C(=O)OC)[C@@H](F)C(=O)OC [Compound 6a, Dimethyl (2R,3S)-2-fluoro-3-propylsuccinate] |  |  |  |  |  |  |  |  |  |  |  |  | 
6 |  |  |  |  |  |  | C=CC[C@@H](C(=O)[O-])[C@@H](F)C(=O)[O-].[K+].[K+] [Compound 7c, Dipotassium (2R,3S)-2-fluoro-3-allylsuccinate] | > 10 | None | 6.78 ± 0.56 |  |  |  | > 512 | > 512 | > 512 | 512 | > 512 | > 512 | 
7 |  |  |  |  |  |  | O=C([O-])/C=C(\CCC(=O)[O-])C(=O)[O-].[K+].[K+].[K+] [Compound 2, tripotassium (1E)-but-1-ene-1,2,4-tricarboxylate] | 1.58 ± 0.11 | None | > 10 |  |  |  | > 512 | > 512 | > 512 | > 512 | > 512 | > 512 | 
8 |  |  |  |  |  |  | O=C([O-])CC[C@@H](C(=O)[O-])[C@@H](F)C(=O)[O-].[K+].[K+].[K+] [Compound 10, tripotassium (1R,2S)-1-fluorobutane-1,2,4-tricarboxylate] | > 10 | None | 3.22 ± 0.55 |  |  |  | > 512 | > 512 | > 512 | > 512 | > 512 | > 512 | 
9 | > 512 | > 512 | > 512 | > 512 | > 512 | > 512 | CCC[C@@H](C(=O)OC)[C@H](O)C(=O)OC [Compound 5a, Dimethyl (2S,3R)-2-hydroxy-3-propylsuccinate] |  |  |  |  |  |  |  |  |  |  |  |  | 
10 | 8 (≈ 26.1 µM) | 4 (≈ 13.1 µM) | 8 (≈ 26.1 µM) | 4 (≈ 13.1 µM) | 4 (≈ 13.1 µM) | 2 (≈ 6.53 µM) | OC(Cn1cncn1)(Cn1cncn1)c1ccc(F)cc1F [Flu, Fluconazole, reference compound] |  |  |  |  |  |  |  |  |  |  |  |  | 
11 | > 512 | 256 (≈ 1160 µM) | 512 (≈ 2320 µM) | 128 (≈ 581 µM) | > 512 | 128 (≈ 581 µM) | CCCC[C@@H](C(=O)OC)[C@@H](F)C(=O)OC [Compound 6b, Dimethyl (2R,3S)-2-fluoro-3-butylsuccinate] |  |  |  |  |  |  |  |  |  |  |  |  | 

Row | SMILES | MIC (Candida krusei DSM 6128; [8]) [µg/mL] | MIC [1, 9] [µg/mL] | MIC [2, 10] [µg/mL] | MIC [3, 11] [µg/mL] | MIC [4, 12] [µg/mL] | MIC [5, 13] [µg/mL] | IC50 [6] [mM] | antifungal activity (six yeast strains) | IC50 [7] [mM] | Km ([7]; recombinant C. albicans HIcDH, read-out: KM of recombinant HIcDH for cofactor) [µM] | effect on enzyme activity (homoaconitase) [6] | effect on enzyme activity (homoisocitrate dehydrogenase) [7] | MIC (Candida krusei DSM 6128; [14]) [µg/mL] | MIC [1, 15] [µg/mL] | MIC [2, 16] [µg/mL] | MIC [3, 17] [µg/mL] | MIC [4, 18] [µg/mL] | MIC [5, 19] [µg/mL] | MIC values, range over susceptible yeast strains (six yeast strains) [µg/mL]
12 | O=C(O)CCC1(C(=O)O)OC1C(=O)O (stereo not drawn) [Compound 4, Tripotassium (1E)1,2-epoxy-butane-1,2,4-tricarboxylate] | > 512 | > 512 | > 512 | > 512 | > 512 | > 512 | 5.76 ± 0.34 | None | > 10 |  |  |  |  |  |  |  |  |  | 
13 | COC(=O)CC[C@@H](C(=O)OC)[C@@H](F)C(=O)OC [Compound 9, trimethyl (1R,2S)-1-fluorobutane-1,2,4-tricarboxylate] | 256 (≈ 1020 µM) | 128 (≈ 512 µM) | 256 (≈ 1020 µM) | > 512 | > 512 | 64 (≈ 256 µM) |  |  |  |  | none | none |  |  |  |  |  |  | 
14 | COC(=O)/C=C(\CCC(=O)OC)C(=O)OC [Compound 1a, trimethyl (1E)-but-1-ene-1,2,4-tricarboxylate] | 32 (≈ 139 µM) | 16 (≈ 69.5 µM) | 16 (≈ 69.5 µM) | 16 (≈ 69.5 µM) | 32 (≈ 139 µM) | 32 (≈ 139 µM) |  |  |  |  | none | none |  |  |  |  |  |  | 16 to 32
15 | COC(=O)CCC1(C(=O)OC)OC1C(=O)OC (stereo not drawn) [Compound 3, Trimethyl (1E)1,2-epoxy-butane-1,2,4-tricarboxylate] | > 512 | 256 (≈ 1040 µM) | 128 (≈ 520 µM) | 512 (≈ 2080 µM) | > 512 | 128 (≈ 520 µM) |  |  |  |  | none | none |  |  |  |  |  |  | 128 to 512
